Experiment [1] concerns HIF transcriptional activity. Nature of the experiment: HIF-dependent luciferase reporter assay (FLuc/RLuc ratio) in Hep3B-c1 cells. Type of experiment: cell-based. The following applies: Homo sapiens, 1% O2, 24 hours, read-out: IC50, inhibition of HIF-dependent reporter gene expression. An excerpt: The NCI CellMiner database contains expression data for over 25,000 mRNAs in 60 human cancer cell lines that have been exposed to more than 20,000 chemical compounds ([49]). We searched CellMiner for a compound that induced changes in gene expression that were highly correlated with those induced by acriflavine, but which was structurally unrelated to acriflavine. Compounds that satisfied the above criteria were identified and subsequently analyzed in Hep3B-c1 cells ([50]), which are stably transfected with HIF-dependent reporter plasmid p2.1, in which firefly luciferase (FLuc) coding sequences are located downstream from a hypoxia-response element (HRE) and a basal SV40 promoter; and control reporter pSVR, in which Renilla luciferase (RLuc) coding sequences are downstream of the basal SV40 promoter only (Figure 1A). The FLuc/RLuc ratio in cells exposed to 1% O2 for 24 hours is a specific measure of HIF-dependent gene expression.
Figure 1 Identification of HIF inhibitors. (A) Hep3B-c1 cells were stably transfected with firefly luciferase (FLuc) reporter p2.1, which contains a hypoxia-response element (HRE), and Renilla luciferase (RLuc) reporter pSVR. (B) Hep3B-c1 cells were incubated with vehicle (Veh; 0.1% DMSO; blue bars) or 10 μM 32-134D (red bars) at 20% O2 (n = 6) or 1% O2 (n = 12) for 24 hours. Cell lysates were assayed for Fluc/Rluc activity (mean ± SEM); *P < 0.05 versus vehicle (χ^2 test). (C) Chemical structures and IC50 values for HIF inhibitors. (D and E) Hep3B cells were exposed to 20% O2 with vehicle, or 1% O2 with vehicle (blue bar), 32-134D (red bars), 33-063 (green bars), or PT2385 (brown bars) for 24 hours and CA9 (D) and EPO (E) mRNAs were quantified by RT-qPCR. […] (F) Hep3B cells were exposed to 20% or 1% O2 in the presence of vehicle or 1% O2 in the presence of 5 μM 32-134D (n = 3 each) for 24 hours. […]
Hep3B-c1 cells ([50]) were seeded on 24-well plates. […] FLuc/RLuc ratios were determined using the Dual Luciferase Reporter Assay System (Supplemental Table 6) and the VICTOR Nivo plate reader (PerkinElmer).

In experiment [2] the test system is hypoxia-induced genes in Hep3B cells. In words: RNA sequencing of Hep3B cells. Type of experiment: cell-based, human. The following applies: 5 μM, 1% O2, 24 hours. The procedure:
RNA sequencing (RNA-seq) was performed on 3 biological replicates of Hep3B cells exposed for 24 hours to vehicle at 20% O2, vehicle at 1% O2, or 5 μM 32-134D at 1% O2. […] Overall, 32-134D inhibited the expression of 4,689 genes, of which the 3,326 hypoxia-induced genes represented 71% of the total.
RNA was extracted using TRIzol Reagent. Quantitative real-time PCR was conducted using SYBR Green PCR Master Mix and reactions were run using a Bio-Rad thermal cycler. Primer sequences and reagent sources are listed in Supplemental Table 5. The mRNA expression of target genes was normalized to the expression of 18S rRNA and the fold change (FC) was calculated based on the threshold cycle (Ct) as FC = 2^–Δ(ΔCt), where ΔCt = Cttarget gene – Ct18S rRNA and Δ(ΔCt) = ΔCttreatment – ΔCtcontrol. For RNA-seq, total RNA was isolated and treated with DNase (Qiagen). […] An automated data analysis pipeline run in the Genialis platform consisted of the following: Sequence quality checks were performed on raw and trimmed reads with FastQC. Bbduk was used to trim adapters and filter out poor quality reads. Trimmed reads were then mapped to the STAR index (ENSEMBL 100) reference genome using the STAR ([93]) aligner. Gene expression levels were quantified with featureCounts ([94]), and differential gene expression analyses were performed with DESeq2 ([95]). […]

Data on one molecule can be found in publication PMC9057582, “HIF inhibitor 32-134D eradicates murine hepatocellular carcinoma in combination with anti-PD1 therapy” (The Journal of Clinical Investigation, 2022).

For `Brc1ccc2c(-c3csc(-c4c[nH]c5c(Br)cccc45)n3)c[nH]c2c1` [Compound 32-134D], the 50% inhibitory concentration (IC50) (usually the midpoint of a concentration-inhibition curve) in experiment [1] was 2.5 µM. The “total number of genes whose expression was inhibited” value in experiment [2] was 4,689 genes. Besides, the “number of hypoxia-induced genes whose expression was inhibited” value in experiment [2] (of 3,849 hypoxia-induced mRNAs) is listed as 3,326 genes.
